Experimental data as given in patent publication US4482565A, “β-Lactam-containing antibacterial agents and β-lactamase inhibitors” (Farmitalia Carlo Erba S.p.A., priority 1981, dated 1984).
Read-outs that look alike come from different tables or passages of the source.

Key:
Assay type in all cases: cell-based
[1] = tested on: Staphylococcus aureus 209P; test: in vitro antibacterial activity (MIC); settings: collection strain, read-out: MIC (minimal inhibitory concentration)
[2] = tested on: Staphylococcus aureus 153; test: in vitro antibacterial activity (MIC); settings: lactamase producer, read-out: MIC (minimal inhibitory concentration)
[3] = tested on: Staphylococcus aureus PV2; test: in vitro antibacterial activity (MIC); settings: read-out: MIC (minimal inhibitory concentration)
[4] = tested on: Staphylococcus aureus Smith; test: in vitro antibacterial activity (MIC); settings: collection strain, read-out: MIC (minimal inhibitory concentration)
Streptococcus pyogenes = test: in vitro antibacterial activity (MIC); settings: read-out: MIC (minimal inhibitory concentration)
Escherichia coli B = test: in vitro antibacterial activity (MIC); settings: read-out: MIC (minimal inhibitory concentration)
Escherichia coli V14 = test: in vitro antibacterial activity (MIC); settings: read-out: MIC (minimal inhibitory concentration)
Escherichia coli V23 = test: in vitro antibacterial activity (MIC); settings: read-out: MIC (minimal inhibitory concentration)
Enterobacter sp V19 = test: in vitro antibacterial activity (MIC); settings: read-out: MIC (minimal inhibitory concentration)
[5] = tested on: Klebsiella pneumoniae ATCC 10031; test: in vitro antibacterial activity (MIC); settings: ATCC10031, Klebsiella pneumoniae ATCC 10031 (first listing), read-out: MIC (minimal inhibitory concentration)
Klebsiella sp. R2 = test: in vitro antibacterial activity (MIC); settings: read-out: MIC (minimal inhibitory concentration)
Proteus vulgaris V15 = test: in vitro antibacterial activity (MIC); settings: read-out: MIC (minimal inhibitory concentration)
Proteus mirabilis V15 = test: in vitro antibacterial activity (MIC); settings: read-out: MIC (minimal inhibitory concentration)
Proteus mirabilis 525 = test: in vitro antibacterial activity (MIC)
Shigella flexneri = test: in vitro antibacterial activity (MIC); settings: read-out: MIC (minimal inhibitory concentration)
Experimental: A series of tests was carried out in vitro to compare the activities of (5R)-acetoxymethyl-2-acetoxymethyl-2-penum-3-carboxylate (Laboratory code FCE/20077/B40/341), (5R) acetoxymethyl-2-[(1-methyl-1H-tetrazol-5-yl)-thiomethyl]-2-penem-3-carboxylate (compound A), three reference compounds (ampicillin, cefoxitin, and thienamycin), and compound 387, which is (5R)-2-acetoxymethyl-6-(1-hydroxyethyl)-2-penem-3-carboxylic acid. The acetoxymethoxy ester of compound 387 is prepared in Example 51 and the sodium salt of the acid is prepared in Example 98 infra. Table 1 below reports the results of the above assays as MIC (minimal inhibitory concentration).

Pseudomonas aeruginosa = test: in vitro antibacterial activity (MIC); settings: read-out: MIC (minimal inhibitory concentration)
Salmonella typhimurium [6] = test: in vitro antibacterial activity (MIC); settings: Salmonella enterica, Salmonella typhimurium (first listing), read-out: MIC (minimal inhibitory concentration)
Salmonella panamae F15 = test: in vitro antibacterial activity (MIC)
[7] = tested on: Salmonella Saint Paul F20; test: in vitro antibacterial activity (MIC); settings: read-out: MIC (minimal inhibitory concentration)
Salmonella derby F14 = test: in vitro antibacterial activity (MIC); settings: Salmonella enterica, read-out: MIC (minimal inhibitory concentration)
[8] = tested on: Salmonella montevideo F16; test: in vitro antibacterial activity (MIC); settings: Salmonella enterica, read-out: MIC (minimal inhibitory concentration)
Escherichia coli B Cef R = test: in vitro antibacterial activity (MIC); settings: read-out: MIC (minimal inhibitory concentration)
Escherichia coli RGN 238 = test: in vitro antibacterial activity (MIC); settings: RGN238, lactamase producer, read-out: MIC (minimal inhibitory concentration)
Escherichia coli P 453 = test: in vitro antibacterial activity (MIC)
Escherichia coli R 997 = test: in vitro antibacterial activity (MIC); settings: R997, read-out: MIC (minimal inhibitory concentration)
Escherichia coli R 57 B = test: in vitro antibacterial activity (MIC); settings: R57B, read-out: MIC (minimal inhibitory concentration)
Escherichia coli RP 1 = test: in vitro antibacterial activity (MIC); settings: RP1, read-out: MIC (minimal inhibitory concentration)
Escherichia coli R 46 = test: in vitro antibacterial activity (MIC)
Escherichia coli R 6 K = test: in vitro antibacterial activity (MIC); settings: R6K, read-out: MIC (minimal inhibitory concentration)
[9] = tested on: Pseudomonas aeruginosa FI; test: in vitro antibacterial activity (MIC); settings: collection strain, read-out: MIC (minimal inhibitory concentration)
[10] = tested on: Pseudomonas aeruginosa ATCC 2598; test: in vitro antibacterial activity (MIC); settings: ATCC2598, collection strain, read-out: MIC (minimal inhibitory concentration)
[11] = tested on: Klebsiella aerogenes ATCC 1082 E; test: in vitro antibacterial activity (MIC)
[12] = tested on: Klebsiella pneumoniae ATCC 10031; test: in vitro antibacterial activity (MIC), second listing of the strain; settings: ATCC10031, collection strain (second listing), read-out: MIC (minimal inhibitory concentration)
[13] = tested on: Enterobacter cloacae P 99; test: in vitro antibacterial activity (MIC); settings: P99, read-out: MIC (minimal inhibitory concentration)
Enterobacter cloacae 214 = test: in vitro antibacterial activity (MIC); settings: lactamase producer, read-out: MIC (minimal inhibitory concentration)
[14] = tested on: Salmonella abortivoequina; test: in vitro antibacterial activity (MIC); settings: collection strain, read-out: MIC (minimal inhibitory concentration)
Salmonella typhimurium [15] = test: in vitro antibacterial activity (MIC), collection strain; settings: Salmonella enterica, read-out: MIC (minimal inhibitory concentration)
Proteus mirabilis = test: as above; settings: read-out: MIC (minimal inhibitory concentration)
[16] = in vitro, Escherichia coli B, collection strain
[17] = in vitro, Proteus mirabilis 525, read-out: MIC (minimal inhibitory concentration)
[18] = in vitro, Salmonella panamae F15, read-out: MIC (minimal inhibitory concentration)

Measured: MIC

CC1(C)S[C@@H]2[C@H](NC(=O)[C@H](N)c3ccccc3)C(=O)N2[C@H]1C(=O)O [Ampicillin]
≤ 0.19 µg/mL: [1] | [3] | [4] | Proteus mirabilis V15 | Shigella flexneri
25 µg/mL: Pseudomonas aeruginosa; in vitro | Escherichia coli R 57 B; in vitro, Escherichia coli R 57 B, lactamase producer | Escherichia coli R 46; R46, in vitro, Escherichia coli R 46, lactamase producer, read-out: MIC (minimal inhibitory concentration) | [12]
3.12 µg/mL: Streptococcus pyogenes; in vitro | Escherichia coli V23
0.78 µg/mL: Salmonella typhimurium [6] | Salmonella panamae F15; [18] | [7] | Salmonella derby F14 | [8] | Salmonella typhimurium [15]; in vitro, Salmonella Typhimurium, collection strain (second listing)
> 100 µg/mL: Enterobacter sp V19 | Escherichia coli B Cef R | Escherichia coli RGN 238 | Escherichia coli P 453; P453, in vitro, Escherichia coli P 453, lactamase producer, read-out: MIC (minimal inhibitory concentration) | Escherichia coli R 997 | Escherichia coli RP 1 | Escherichia coli R 6 K | [9] | [10] | [11]; ATCC1082, in vitro, Klebsiella aerogenes ATCC 1082 E, lactamase producer, read-out: MIC (minimal inhibitory concentration) | [13] | Enterobacter cloacae 214 | Proteus mirabilis; in vitro, collection strain
50 µg/mL: [5] | Klebsiella sp. R2
1.56 µg/mL: [2] | Escherichia coli V14 | Proteus vulgaris V15
0.39 µg/mL: Escherichia coli B; [16] | Proteus mirabilis 525; [17]
0.19 µg/mL: [14]

CO[C@@]1(NC(=O)Cc2cccs2)C(=O)N2C(C(=O)O)=C(COC(N)=O)CS[C@@H]21 [Cefoxitin]
1.56 µg/mL: Streptococcus pyogenes | Escherichia coli B; Escherichia coli | Proteus mirabilis 525; Proteus mirabilis, 525, read-out: MIC (minimal inhibitory concentration) | Salmonella panamae F15; Salmonella, F15, read-out: MIC (minimal inhibitory concentration) | Escherichia coli P 453; Escherichia coli, P453, read-out: MIC (minimal inhibitory concentration) | Escherichia coli R 57 B; Escherichia coli | Escherichia coli RP 1 | Escherichia coli R 46; Escherichia coli, R46, read-out: MIC (minimal inhibitory concentration) | Salmonella typhimurium [15]; TYPHIMURIUM | Proteus mirabilis
100 µg/mL: [13]
0.78 µg/mL: [1] | [2] | [3] | [4] | [5] | Proteus vulgaris V15 | Proteus mirabilis V15 | Shigella flexneri | [12] | [14]
12.5 µg/mL: Escherichia coli V23 | Enterobacter sp V19 | Klebsiella sp. R2
3.12 µg/mL: Escherichia coli V14 | Salmonella typhimurium [6] | [7] | Salmonella derby F14 | [8] | Escherichia coli RGN 238
> 100 µg/mL: Escherichia coli B Cef R | [10] | Enterobacter cloacae 214
6.25 µg/mL: Pseudomonas aeruginosa | Escherichia coli R 997 | [9] | [11]; Klebsiella aerogenes, ATCC1082, read-out: MIC (minimal inhibitory concentration)
3.1 µg/mL: Escherichia coli R 6 K

CC(=O)OCOC(=O)C1=C(CSc2nnnn2C)S[C@@H]2CC(=O)N12 [Compound A, (5R)-Acetoxymethyl-2-[(1-methyl-1-H-tetrazol-5-yl)-thiomethyl]-2-penem-3-carboxylate]
> 100 µg/mL: Enterobacter sp V19
6.25 µg/mL: Proteus vulgaris V15
3.12 µg/mL: [5]
0.39 µg/mL: [1] | [4] | Shigella flexneri | Pseudomonas aeruginosa; in vitro
0.78 µg/mL: [2] | [3] | Streptococcus pyogenes; in vitro | Escherichia coli B; [16] | Escherichia coli V14 | Escherichia coli V23 | Proteus mirabilis V15 | Proteus mirabilis 525; [17] | Salmonella typhimurium [6] | Salmonella panamae F15; [18] | [7] | Salmonella derby F14 | [8]
